Calls of active or inactive are those of the source.
What was measured:
Format in all cases: functional
[1] = target: Mitogen-activated protein kinase kinase kinase kinase 4 (Homo sapiens, UniProt O95819)
[2] = target: Serine/threonine-protein kinase pim-1 (Homo sapiens, UniProt P11309)
[3] = target: cAMP-dependent protein kinase catalytic subunit alpha (Homo sapiens, UniProt P17612)
[4] = target: Glycogen synthase kinase-3 beta (Homo sapiens, UniProt P49841);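 further: value comes from a broad kinome profiling panel, with GSK3B as the panel member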
[5] = target: Cell division cycle 7-related protein kinase (Homo sapiens, UniProt O00311);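 further: value obtained from a kinome-wide kinase panel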
[6] = target: Interleukin-1 receptor-associated kinase 4 (Homo sapiens, UniProt Q9NWZ3)
[7] = target: Homeodomain-interacting protein kinase 2 (Homo sapiens, UniProt Q9H2X6);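 further: measured within a kinome-wide kinase profiling panel, HIPK2 being one panel member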
[8] = target: Dual specificity protein kinase CLK4 (Homo sapiens, UniProt Q9HAZ1)
[9] = target: Melanin-concentrating hormone receptor 1 (Homo sapiens, UniProt Q99705); assay: Late-stage fluorescence-based counterscreen for antagonists of the G-protein coupled receptor 7 (GPR7): cell-based dose response assay to identify antagonists of the melanin-concentrating hormone receptor 1 (MCHR1) Set 5.
[10] = target: T1, Neuropeptides B/W receptor type 1 (Homo sapiens, UniProt P48145); assay: human NPBW1 receptor blockade, IC50 – cell-based, fluorescence, dose response, set 5, late-stage follow-up (AID 588566)
T1 sequence (P48145 whole entry): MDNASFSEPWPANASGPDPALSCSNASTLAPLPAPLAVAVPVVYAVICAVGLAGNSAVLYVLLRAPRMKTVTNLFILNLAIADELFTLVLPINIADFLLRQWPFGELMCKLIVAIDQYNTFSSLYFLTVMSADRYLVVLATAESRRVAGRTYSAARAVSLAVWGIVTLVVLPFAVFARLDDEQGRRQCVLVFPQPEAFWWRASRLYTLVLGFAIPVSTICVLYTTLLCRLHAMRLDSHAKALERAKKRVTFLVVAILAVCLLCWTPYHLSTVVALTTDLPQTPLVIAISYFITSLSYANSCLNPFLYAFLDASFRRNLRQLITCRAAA

[11] = Vero cell cytotoxicity, cytotoxicity control for M. tuberculosis inhibitor project, purified and synthesized samples, set 3 (AID 504684)
[12] = THP-1 cell cytotoxicity, dose response, cytotoxicity control, set 3 (AID 504852); settings: Mycobacterium tuberculosis
[13] = A Cell Based Secondary Assay to Explore Cytotoxicity in HepG2 Cells of Compounds that Modulate Mycobacterium tuberculosis in Media Containing Glycerol versus Media without Glycerol (2).
[14] = Vero cell cytotoxicity, dose response, cytotoxicity control for M. tuberculosis growth inhibitor project, Vero cells, purified and synthesized compounds, set 4 (AID 504854); settings: Mycobacterium tuberculosis
[15] = THP-1 cell cytotoxicity, cytotoxicity control, set 4 (AID 504911); settings: Mycobacterium tuberculosis

Chain of Glycogen synthase kinase-3 beta (P49841 whole entry): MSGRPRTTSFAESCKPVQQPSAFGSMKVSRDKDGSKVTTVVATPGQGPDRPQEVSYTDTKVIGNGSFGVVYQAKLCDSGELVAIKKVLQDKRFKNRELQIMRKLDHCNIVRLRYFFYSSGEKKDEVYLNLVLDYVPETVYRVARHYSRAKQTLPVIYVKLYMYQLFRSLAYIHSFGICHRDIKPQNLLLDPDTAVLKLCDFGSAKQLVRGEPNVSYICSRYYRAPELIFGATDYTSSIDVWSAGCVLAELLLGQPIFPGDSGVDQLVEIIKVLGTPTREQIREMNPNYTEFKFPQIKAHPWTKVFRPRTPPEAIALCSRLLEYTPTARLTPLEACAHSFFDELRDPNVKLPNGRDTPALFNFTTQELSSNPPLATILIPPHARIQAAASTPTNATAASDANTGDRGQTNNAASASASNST
Chain of Serine/threonine-protein kinase pim-1 (P11309 whole entry): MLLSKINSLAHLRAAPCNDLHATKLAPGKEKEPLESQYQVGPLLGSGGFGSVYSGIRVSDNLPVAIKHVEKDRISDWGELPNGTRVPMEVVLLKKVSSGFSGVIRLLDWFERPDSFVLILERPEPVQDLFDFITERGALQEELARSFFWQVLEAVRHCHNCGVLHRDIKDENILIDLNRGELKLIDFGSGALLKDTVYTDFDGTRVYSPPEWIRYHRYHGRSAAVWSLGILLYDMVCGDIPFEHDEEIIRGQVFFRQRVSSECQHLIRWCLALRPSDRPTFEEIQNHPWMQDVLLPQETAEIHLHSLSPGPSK
Chain of Dual specificity protein kinase CLK4 (Q9HAZ1 whole entry): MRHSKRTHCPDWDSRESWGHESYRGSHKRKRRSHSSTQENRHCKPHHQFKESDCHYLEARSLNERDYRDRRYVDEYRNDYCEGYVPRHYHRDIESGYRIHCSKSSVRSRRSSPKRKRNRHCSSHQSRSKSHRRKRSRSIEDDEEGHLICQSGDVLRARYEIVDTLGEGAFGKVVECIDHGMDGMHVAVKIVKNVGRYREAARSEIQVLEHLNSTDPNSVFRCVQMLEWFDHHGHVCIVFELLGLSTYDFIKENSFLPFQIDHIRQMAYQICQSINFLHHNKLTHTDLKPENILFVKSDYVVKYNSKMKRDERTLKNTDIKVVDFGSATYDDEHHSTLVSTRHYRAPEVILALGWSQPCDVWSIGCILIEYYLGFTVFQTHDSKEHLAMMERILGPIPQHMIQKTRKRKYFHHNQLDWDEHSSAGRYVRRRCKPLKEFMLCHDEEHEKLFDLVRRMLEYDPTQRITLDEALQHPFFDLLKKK
Chain of Cell division cycle 7-related protein kinase (O00311 whole entry): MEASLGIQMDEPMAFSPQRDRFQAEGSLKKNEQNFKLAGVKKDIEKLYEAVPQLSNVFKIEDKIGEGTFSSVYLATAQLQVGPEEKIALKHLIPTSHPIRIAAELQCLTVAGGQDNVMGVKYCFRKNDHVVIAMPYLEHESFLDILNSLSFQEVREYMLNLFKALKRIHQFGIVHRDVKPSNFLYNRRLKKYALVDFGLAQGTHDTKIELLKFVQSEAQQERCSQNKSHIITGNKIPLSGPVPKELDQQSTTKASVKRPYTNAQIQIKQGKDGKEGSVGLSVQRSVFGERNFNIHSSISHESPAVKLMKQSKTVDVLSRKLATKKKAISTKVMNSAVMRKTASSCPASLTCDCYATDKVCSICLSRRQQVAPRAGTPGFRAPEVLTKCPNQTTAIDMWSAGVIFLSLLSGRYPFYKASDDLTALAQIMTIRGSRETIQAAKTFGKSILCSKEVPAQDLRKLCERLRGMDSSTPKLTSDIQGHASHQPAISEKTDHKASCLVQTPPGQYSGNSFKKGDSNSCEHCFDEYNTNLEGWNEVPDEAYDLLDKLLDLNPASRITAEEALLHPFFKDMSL
Chain of Interleukin-1 receptor-associated kinase 4 (Q9NWZ3 whole entry): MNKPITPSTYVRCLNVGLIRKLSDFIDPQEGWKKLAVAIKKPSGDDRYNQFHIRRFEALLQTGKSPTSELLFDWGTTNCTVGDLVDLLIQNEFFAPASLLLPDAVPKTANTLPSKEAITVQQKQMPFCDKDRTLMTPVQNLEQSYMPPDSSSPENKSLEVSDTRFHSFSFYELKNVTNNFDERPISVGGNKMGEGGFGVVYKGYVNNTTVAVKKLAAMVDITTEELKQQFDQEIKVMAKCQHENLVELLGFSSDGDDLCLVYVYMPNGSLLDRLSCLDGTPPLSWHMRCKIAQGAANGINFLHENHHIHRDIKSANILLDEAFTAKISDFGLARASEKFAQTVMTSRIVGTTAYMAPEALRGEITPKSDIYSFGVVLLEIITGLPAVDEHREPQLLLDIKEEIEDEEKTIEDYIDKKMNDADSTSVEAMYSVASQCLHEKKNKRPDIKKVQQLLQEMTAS
Chain of Homeodomain-interacting protein kinase 2 (Q9H2X6 whole entry): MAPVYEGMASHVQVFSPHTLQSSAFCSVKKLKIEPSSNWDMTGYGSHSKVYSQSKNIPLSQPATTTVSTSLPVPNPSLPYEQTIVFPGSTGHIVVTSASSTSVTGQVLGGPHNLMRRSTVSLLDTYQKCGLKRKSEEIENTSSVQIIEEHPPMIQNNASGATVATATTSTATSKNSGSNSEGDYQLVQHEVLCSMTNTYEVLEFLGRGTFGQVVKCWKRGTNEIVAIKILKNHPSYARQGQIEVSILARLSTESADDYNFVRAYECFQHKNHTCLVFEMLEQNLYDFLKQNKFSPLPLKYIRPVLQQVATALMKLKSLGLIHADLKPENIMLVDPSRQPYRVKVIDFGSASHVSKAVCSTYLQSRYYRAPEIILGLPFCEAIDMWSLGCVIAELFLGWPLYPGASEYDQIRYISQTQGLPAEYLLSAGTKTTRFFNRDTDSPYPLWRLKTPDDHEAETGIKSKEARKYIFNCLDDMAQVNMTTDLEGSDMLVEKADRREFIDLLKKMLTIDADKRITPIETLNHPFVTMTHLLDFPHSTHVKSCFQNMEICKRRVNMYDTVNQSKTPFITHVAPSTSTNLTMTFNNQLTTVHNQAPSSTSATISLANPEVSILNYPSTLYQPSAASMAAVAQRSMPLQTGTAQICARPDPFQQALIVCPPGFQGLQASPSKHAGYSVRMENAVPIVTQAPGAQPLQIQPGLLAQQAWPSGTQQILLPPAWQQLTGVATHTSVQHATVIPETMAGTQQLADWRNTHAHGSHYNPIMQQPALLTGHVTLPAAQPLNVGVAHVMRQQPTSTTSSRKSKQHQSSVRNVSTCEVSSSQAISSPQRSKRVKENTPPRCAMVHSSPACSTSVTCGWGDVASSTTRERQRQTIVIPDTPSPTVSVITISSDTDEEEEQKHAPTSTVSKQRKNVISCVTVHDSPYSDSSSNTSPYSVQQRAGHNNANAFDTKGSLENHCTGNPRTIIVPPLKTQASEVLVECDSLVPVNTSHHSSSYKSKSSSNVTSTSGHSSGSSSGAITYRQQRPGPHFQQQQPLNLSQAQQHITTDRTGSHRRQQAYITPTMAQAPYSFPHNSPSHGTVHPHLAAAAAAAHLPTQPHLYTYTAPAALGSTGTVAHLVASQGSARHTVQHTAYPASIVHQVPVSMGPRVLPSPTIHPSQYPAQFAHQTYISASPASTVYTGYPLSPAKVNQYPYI
Chain of Mitogen-activated protein kinase kinase kinase kinase 4 (O95819 whole entry): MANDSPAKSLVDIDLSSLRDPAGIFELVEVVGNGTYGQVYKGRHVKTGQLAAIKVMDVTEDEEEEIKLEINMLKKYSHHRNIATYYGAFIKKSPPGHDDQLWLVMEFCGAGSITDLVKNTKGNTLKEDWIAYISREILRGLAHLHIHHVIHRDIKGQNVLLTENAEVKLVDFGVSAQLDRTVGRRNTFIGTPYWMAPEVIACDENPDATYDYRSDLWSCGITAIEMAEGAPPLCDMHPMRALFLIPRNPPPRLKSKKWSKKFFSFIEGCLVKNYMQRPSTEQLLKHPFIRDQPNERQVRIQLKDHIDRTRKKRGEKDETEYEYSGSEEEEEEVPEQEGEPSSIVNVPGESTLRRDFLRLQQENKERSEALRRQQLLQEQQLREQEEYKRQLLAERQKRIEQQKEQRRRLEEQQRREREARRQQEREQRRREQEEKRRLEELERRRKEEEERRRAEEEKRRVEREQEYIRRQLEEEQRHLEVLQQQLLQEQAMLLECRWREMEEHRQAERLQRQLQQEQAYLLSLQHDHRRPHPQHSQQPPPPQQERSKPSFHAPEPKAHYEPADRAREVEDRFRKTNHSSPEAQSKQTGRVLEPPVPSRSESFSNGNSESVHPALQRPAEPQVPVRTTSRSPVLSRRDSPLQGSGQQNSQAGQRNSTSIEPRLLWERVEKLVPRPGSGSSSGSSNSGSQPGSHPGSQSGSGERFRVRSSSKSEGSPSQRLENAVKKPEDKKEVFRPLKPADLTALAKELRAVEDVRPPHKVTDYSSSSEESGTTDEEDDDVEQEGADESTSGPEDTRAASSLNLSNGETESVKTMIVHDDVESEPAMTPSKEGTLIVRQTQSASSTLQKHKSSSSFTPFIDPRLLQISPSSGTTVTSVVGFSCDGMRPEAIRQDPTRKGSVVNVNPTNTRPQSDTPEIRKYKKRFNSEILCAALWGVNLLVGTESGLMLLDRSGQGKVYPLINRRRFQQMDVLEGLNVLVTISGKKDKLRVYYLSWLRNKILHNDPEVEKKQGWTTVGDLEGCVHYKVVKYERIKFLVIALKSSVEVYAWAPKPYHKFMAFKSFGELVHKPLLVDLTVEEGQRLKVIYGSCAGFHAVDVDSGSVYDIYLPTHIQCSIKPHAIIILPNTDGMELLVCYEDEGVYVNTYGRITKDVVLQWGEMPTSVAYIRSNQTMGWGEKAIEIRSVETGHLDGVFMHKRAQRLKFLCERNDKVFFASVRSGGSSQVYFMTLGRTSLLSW
Chain of Melanin-concentrating hormone receptor 1 (Q99705 whole entry): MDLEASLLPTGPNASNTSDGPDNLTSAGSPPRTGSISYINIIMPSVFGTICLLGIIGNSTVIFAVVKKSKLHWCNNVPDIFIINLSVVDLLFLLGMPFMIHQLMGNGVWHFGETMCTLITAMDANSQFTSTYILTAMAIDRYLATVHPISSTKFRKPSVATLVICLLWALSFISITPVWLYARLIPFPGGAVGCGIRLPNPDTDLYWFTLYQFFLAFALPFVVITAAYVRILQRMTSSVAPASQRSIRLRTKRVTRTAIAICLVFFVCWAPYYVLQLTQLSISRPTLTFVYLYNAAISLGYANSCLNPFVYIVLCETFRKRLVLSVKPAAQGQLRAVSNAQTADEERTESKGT

## O=C1Nc2ccccc2Nc2cc(-c3ccncc3F)ccc21
[1]
  Ki: 0.794 µM (active)
[2]
  Ki: > 10 µM (inactive)
[3]
  Ki: 1 µM (active)
[4]
  Ki: 0.158 µM (active)
[5]
  Ki: 0.00398 µM (active)
[6]
  Ki: 1.58 µM (active)
[7]
  Ki: 0.631 µM (active)
[8]
  Ki: 0.0251 µM (active)

## COc1c(F)cc(Oc2c(Cl)cnn(Cc3cccc4ccccc34)c2=O)cc1Cl
[9]
  IC50: 11.2 µM (inactive)
[10]
  IC50: 5.05 µM (active)

## CC1CCN(C(=O)C2CCN(c3nnc(-n4cccc4)s3)CC2)CC1
[11]
  CC50: > 100 µM (active)
[12]
  CC50: > 100 µM (active)
[13]
  CC50: > 50 µM (active)
[14]
  CC50: > 100 µM (active)
[15]
  CC50: > 100 µM (active)
